These results are taken from PubChem BioAssay (NCI).

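Protocol summary: plate cells (96-well), add compound at 5 concentrations, incubate 48 h, interpolate endpoints linearly. GI50: concentration for 50% inhibition of growth. TGI: concentration producing complete growth inhibition.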

The first assay deals with BT-549 breast. Kind of assay: DTP human tumour cell line panel, 48 h.
For `COc1cc(/C=C2\CN(S(=O)(=O)c3ccccc3)C/C(=C\c3cc(CN4CCCC4)c(O)c(OC)c3)C2=O)cc(CN2CCCC2)c1O`, the GI50 was 1.99 µM and the TGI turned out to be 5.14 µM.
The matching figures for `COc1ccc([C@H]2[C@@H](F)C(=O)N2c2cc(OC)c(OC)c(OC)c2)cc1F`: 0.0498 µM and 33.8 µM.
Molecule `CC(C)(C)OC(=O)N[C@H]1CC2(C=C(Cl)C(=O)C(Cl)=C2)OC1=O` showed a TGI of 29.9 µM.

A further assay concerns SK-MEL-2 melanoma. Kind of assay: DTP human tumour cell line panel, 48 h.
`CCOC(=O)NC(=O)c1cn(CCCO)c(=O)[nH]c1=O` came in with a TGI above 100 µM.
Still for that read-out and setting: the same measure for `CCN1c2ccccc2C(C(SC)S(=O)(=O)c2ccc(C)cc2)c2c1[nH]c(=O)n(C)c2=O` (stereo unspecified): above 100 µM; for `COc1ccc(S(=O)(=O)NNS(C)(=O)=O)cc1`: above 100 µM.
In the case of `COc1cc(/C=C2\CN(S(=O)(=O)c3ccccc3)C/C(=C\c3cc(CN4CCCC4)c(O)c(OC)c3)C2=O)cc(CN2CCCC2)c1O`, the GI50 was 2.03 µM and the TGI worked out at 5.02 µM.
The matching figures for `CN1CCN(CCCn2c(=O)c3sc4ncccc4c3n3nnc(-c4ccccc4)c23)CC1`: 8.8 µM and 16.7 µM.
On to `COC(=O)C1=C(C)NC(C)=C(C(=O)OCCCN2CCC(c3ccccc3)(c3ccccc3)CC2)C1c1cccc([N+](=O)[O-])c1` (stereo unspecified), for which the TGI was 4.74 µM.
Consider `COc1ccc([C@H]2[C@@H](F)C(=O)N2c2cc(OC)c(OC)c(OC)c2)cc1F`, for which the GI50 is 0.303 µM and the TGI was above 100 µM.
`CC1(C)C2CCC(=O)C1CC2` (stereo unspecified) showed a TGI above 100 µM.
Same read-out and setting: as for `CCCCCCN(CCCCCC)C(=O)Cc1c2n(c3ccccc13)Cc1ccccc1-2`, the figure is above 100 µM; as for `C/C(=N\NC(=S)NC(CCC(=O)O)C(=O)O)c1ccccn1` (stereo unspecified), above 100 µM; as for `Brc1ccccc1C1SCc2nc3ccccc3n21` (stereo unspecified), 32.5 µM.
Still for that read-out and setting: the same measure for `O=C(/C=C\c1ccc(Cl)c(Cl)c1)c1ccc(Cl)cc1Cl`: 41.9 µM.
The same measure, in the same setting: as for `CCOC(=O)C(=C=C=C(c1ccccc1)c1ccccc1)C(=O)OCC`, the figure is 36.9 µM; as for `Cn1c2ccccc2c2cc(-c3ccccc3)c3c(c21)C(=O)c1ccccc1C3=O`, 43.4 µM.
Molecule `c1ccc(COc2cccc3ccc[n+](Cc4ccccc4)c23)cc1` registered a TGI of 20.3 µM.
Still for that read-out and setting: as for `CN(C)c1ccc(/C=C(\NC(=O)c2ccccc2)c2nc3ncncc3[nH]2)cc1`, the figure is above 100 µM.
The same measure, in the same setting: the same measure for `CC1=CC(O)(c2ccc(-c3ccccc3Cl)cc2)OC1=O` (stereo unspecified): above 100 µM; for `CCOC(=O)CC(=O)ON(C)C(C)=O`: above 100 µM; for `COc1cc(NCc2ccc3oc(=O)c(-c4ccccc4)nc3c2)cc(OC)c1OC`: above 10 µM.
The same measure, in the same setting: as for `CCc1cc(Cc2cc(CC)c(NC(=O)C(=O)Cc3ccccn3)c(CC)c2Cl)c(Cl)c(CC)c1NC(=O)C(=O)Cc1ccccn1`, the figure is above 100 µM; as for `CC(C)OP(=O)(OC(C)C)C(=NCCN=C(NNc1ccc([N+](=O)[O-])cc1)P(=O)(OC(C)C)OC(C)C)NNc1ccc([N+](=O)[O-])cc1`, 53 µM.
`COC(OC)C(C)CC(=O)N(C)C` (stereo unspecified) showed a TGI above 100 µM.
Still for that read-out and setting: the same measure for `O=S1(=O)OCCOS(=O)(=O)C1Br`: above 100 µM; for `CC(C)=Cc1cc(C(=O)Nc2ccc(Cl)c(Cl)c2)nc(N)n1`: above 100 µM; for `C#CC1(O)CCC2C3CCc4cc(Oc5nc(F)nc(-c6c7ccccc7c7sc8ccccc8n67)n5)ccc4C3CC[C@@]21C` (stereo partly specified): above 100 µM.
Same read-out and setting: as for `CC(=O)/C(=C\c1cccc([N+](=O)[O-])c1)C(=O)Nc1ccccc1C`, the figure is above 100 µM.
Still for that read-out and setting: as for `Clc1ccc(C(c2ccc(Cl)cc2)c2ccccn2)cc1`, the figure is 35 µM; as for `C[Si](C)(C)C1(Sc2ccccc2)SCCCS1`, above 100 µM; as for `CC(C)(C)OC(=O)N[C@H]1CC2(C=C(Cl)C(=O)C(Cl)=C2)OC1=O`, 41.7 µM.
For the molecule `O=c1cc(-c2ccccc2)oc2cc(OCCCOc3ccc4c(=O)cc(-c5ccccc5)oc4c3)ccc12`, the TGI is above 100 µM.

A further assay deals with SF-268 CNS. Kind of assay: DTP human tumour cell line panel, 48 h.
`CCOC(=O)NC(=O)c1cn(CCCO)c(=O)[nH]c1=O` had a TGI above 100 µM.
On the same count and under the same terms, as for `CCN1c2ccccc2C(C(SC)S(=O)(=O)c2ccc(C)cc2)c2c1[nH]c(=O)n(C)c2=O` (stereo unspecified), the figure is above 100 µM.
Same read-out and setting: the same measure for `COc1ccc(S(=O)(=O)NNS(C)(=O)=O)cc1`: above 100 µM.
Consider `COc1cc(/C=C2\CN(S(=O)(=O)c3ccccc3)C/C(=C\c3cc(CN4CCCC4)c(O)c(OC)c3)C2=O)cc(CN2CCCC2)c1O`, for which the GI50 is 1.45 µM and the TGI was found to be 4.06 µM.
In the same order, the values of `CN1CCN(CCCn2c(=O)c3sc4ncccc4c3n3nnc(-c4ccccc4)c23)CC1` are 6.45 µM and 13.2 µM.
For the molecule `CC(=O)OC1COC(n2ccc3cc(Br)c([N+](=O)[O-])cc32)C(OC(C)=O)C1OC(C)=O` (stereo unspecified), the TGI was above 100 µM.
The same measure, in the same setting: as for `Cn1cnc([N+](=O)[O-])c1Sc1nc2ccccc2[nH]1`, the figure is 38.5 µM; as for `COC(=O)C1=C(C)NC(C)=C(C(=O)OCCCN2CCC(c3ccccc3)(c3ccccc3)CC2)C1c1cccc([N+](=O)[O-])c1` (stereo unspecified), 3.47 µM.
Turning to `COc1ccc([C@H]2[C@@H](F)C(=O)N2c2cc(OC)c(OC)c(OC)c2)cc1F`, the GI50 was 0.324 µM and the TGI is above 100 µM.
Molecule `CC1(C)C2CCC(=O)C1CC2` (stereo unspecified) returned a TGI above 100 µM.
Same read-out and setting: the same measure for `CCCCCCN(CCCCCC)C(=O)Cc1c2n(c3ccccc13)Cc1ccccc1-2`: above 100 µM.
Still for that read-out and setting: as for `C/C(=N\NC(=S)NC(CCC(=O)O)C(=O)O)c1ccccn1` (stereo unspecified), the figure is above 100 µM; as for `Brc1ccccc1C1SCc2nc3ccccc3n21` (stereo unspecified), 66.1 µM; as for `O=C(/C=C\c1ccc(Cl)c(Cl)c1)c1ccc(Cl)cc1Cl`, 55.1 µM.
On the same count and under the same terms, the same measure for `CCOC(=O)C(=C=C=C(c1ccccc1)c1ccccc1)C(=O)OCC`: 63.5 µM; for `Cn1c2ccccc2c2cc(-c3ccccc3)c3c(c21)C(=O)c1ccccc1C3=O`: 91.8 µM.
Regarding `c1ccc(COc2cccc3ccc[n+](Cc4ccccc4)c23)cc1`, the total growth inhibition concentration (TGI) is above 100 µM.
On the same count and under the same terms, as for `CN(C)c1ccc(/C=C(\NC(=O)c2ccccc2)c2nc3ncncc3[nH]2)cc1`, the figure is above 100 µM; as for `CC1=CC(O)(c2ccc(-c3ccccc3Cl)cc2)OC1=O` (stereo unspecified), above 100 µM.
Same read-out and setting: the same measure for `CCOC(=O)CC(=O)ON(C)C(C)=O`: above 100 µM.
